Source: ChEMBL document CHEMBL5579794, “Improved synthesis and evaluation of preclinical pharmacodynamic parameters of a new monocyclic β-lactam DPI-2016” (Bioorg Med Chem Lett, 2024)

How the values were obtained:
[1] = Plasma protein binding in human at 1 uM incubated for 6 hrs by LC-MS/MS analysis; type: ADME, cell-free
[2] = Stability in human plasma at 1 uM measured upto 120 mins by LC-MS/MS analysis; type: ADME, cell-free; conditions: 2 h
[3] = Stability in monkey plasma at 1 uM measured upto 120 mins by LC-MS/MS analysis; type: ADME, cell-free, Macaca mulatta; conditions: rhesus monkey, 2 h
[4] = Stability in dog plasma at 1 uM measured upto 120 mins by LC-MS/MS analysis; type: ADME, cell-free, Canis lupus familiaris; conditions: 2 h
[5] = Stability in rat plasma at 1 uM measured upto 120 mins by LC-MS/MS analysis; type: ADME, cell-free; conditions: 2 h
[6] = Stability in mouse plasma at 1 uM measured upto 120 mins by LC-MS/MS analysis; type: ADME, cell-free; conditions: 2 h
[7] = Stability in human liver microsomes at 1 uM measured up to 60 mins in presence of NADPH by LC-MS/MS analysis; type: ADME, Microsome; conditions: 1 h
[8] = Stability in monkey liver microsomes at 1 uM measured up to 60 mins in presence of NADPH by LC-MS/MS analysis; type: ADME, Macaca mulatta, Microsome; conditions: rhesus monkey, 1 h
[9] = Stability in dog microsomes at 1 uM measured up to 60 mins in presence of NADPH by LC-MS/MS analysis; type: ADME, Canis lupus familiaris, Liver, Microsome; conditions: 1 h
[10] = Stability in rat liver microsomes at 1 uM measured up to 60 mins in presence of NADPH by LC-MS/MS analysis; type: ADME, Microsome; conditions: 1 h
[11] = Stability in mouse liver microsomes at 1 uM measured up to 60 mins in presence of NADPH by LC-MS/MS analysis; type: ADME, Microsome; conditions: 1 h
[12] = molecular target: Cytochrome P450 3A4 (Homo sapiens, UniProt P08684); assay: Inhibition of CYP3A4 (unknown origin) at upto 100 uM; type: ADME
[13] = molecular target: Cytochrome P450 2D6 (Homo sapiens, UniProt P10635); assay: Inhibition of CYP2D6 (unknown origin) at upto 100 uM; type: ADME
[14] = molecular target: Cytochrome P450 2C19 (Homo sapiens, UniProt P33261); assay: Inhibition of CYP2C19 (unknown origin) at upto 100 uM; type: ADME
[15] = molecular target: T1, Cytochrome P450 2C8 (Homo sapiens, UniProt P10632); assay: Inhibition of CYP2C8 (unknown origin) at upto 100 uM; type: ADME
T1 sequence (P10632 whole entry): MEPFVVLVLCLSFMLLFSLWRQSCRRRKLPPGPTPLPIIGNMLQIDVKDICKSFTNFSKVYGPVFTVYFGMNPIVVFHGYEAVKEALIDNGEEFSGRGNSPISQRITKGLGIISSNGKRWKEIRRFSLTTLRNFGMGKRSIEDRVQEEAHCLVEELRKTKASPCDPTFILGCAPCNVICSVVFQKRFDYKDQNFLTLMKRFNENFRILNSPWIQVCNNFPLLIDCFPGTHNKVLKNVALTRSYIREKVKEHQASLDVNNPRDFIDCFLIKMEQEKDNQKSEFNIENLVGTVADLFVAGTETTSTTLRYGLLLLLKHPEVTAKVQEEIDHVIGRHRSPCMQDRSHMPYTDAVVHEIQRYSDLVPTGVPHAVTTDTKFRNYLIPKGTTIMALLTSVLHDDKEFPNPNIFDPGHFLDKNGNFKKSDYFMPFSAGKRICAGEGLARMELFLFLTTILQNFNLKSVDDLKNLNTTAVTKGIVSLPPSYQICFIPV

[16] = molecular target: Cytochrome P450 2C9 (Homo sapiens, UniProt P11712); assay: Inhibition of CYP2C9 (unknown origin) at upto 100 uM; type: ADME
[17] = molecular target: T2, Cytochrome P450 2B6 (Homo sapiens, UniProt P20813); assay: Inhibition of CYP2B6 (unknown origin) at upto 100 uM; type: ADME
T2 sequence (P20813 whole entry): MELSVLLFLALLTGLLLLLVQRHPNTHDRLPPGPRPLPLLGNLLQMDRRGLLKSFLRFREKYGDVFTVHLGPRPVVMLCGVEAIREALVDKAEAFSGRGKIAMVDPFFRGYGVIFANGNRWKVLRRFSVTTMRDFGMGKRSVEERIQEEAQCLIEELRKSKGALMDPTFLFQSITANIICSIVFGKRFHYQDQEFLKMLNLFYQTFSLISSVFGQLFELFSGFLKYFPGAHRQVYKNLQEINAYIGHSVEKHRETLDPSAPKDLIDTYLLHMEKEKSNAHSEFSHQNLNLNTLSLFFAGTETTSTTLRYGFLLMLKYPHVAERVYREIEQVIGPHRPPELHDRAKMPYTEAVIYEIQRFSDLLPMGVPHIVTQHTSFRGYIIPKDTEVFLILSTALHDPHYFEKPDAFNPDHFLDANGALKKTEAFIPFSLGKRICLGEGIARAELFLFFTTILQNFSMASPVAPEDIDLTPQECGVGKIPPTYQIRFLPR

[18] = molecular target: T3, Cytochrome P450 1A2 (Homo sapiens, UniProt P05177); assay: Inhibition of CYP1A2 (unknown origin) at upto 100 uM; type: ADME
T3 sequence (P05177 whole entry): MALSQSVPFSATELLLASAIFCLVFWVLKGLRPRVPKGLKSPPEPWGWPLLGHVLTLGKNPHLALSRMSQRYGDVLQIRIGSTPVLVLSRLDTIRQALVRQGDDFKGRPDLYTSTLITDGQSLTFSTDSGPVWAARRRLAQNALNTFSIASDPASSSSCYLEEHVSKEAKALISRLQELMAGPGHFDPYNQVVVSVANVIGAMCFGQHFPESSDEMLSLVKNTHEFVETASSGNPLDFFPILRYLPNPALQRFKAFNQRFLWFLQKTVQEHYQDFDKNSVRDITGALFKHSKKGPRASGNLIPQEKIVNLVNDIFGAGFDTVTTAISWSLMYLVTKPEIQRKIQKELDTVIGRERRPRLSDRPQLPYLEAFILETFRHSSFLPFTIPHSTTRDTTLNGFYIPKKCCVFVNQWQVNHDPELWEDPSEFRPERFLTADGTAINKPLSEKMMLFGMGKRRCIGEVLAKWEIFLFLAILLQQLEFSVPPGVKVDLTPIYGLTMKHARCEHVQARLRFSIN

[19] = tested on: Huh-7; assay: Cytotoxicity against human Huh-7 cells at 300 ug/ml relative to control; type: toxicity, cell-based; conditions: at 300 µg/mL
[20] = Half life in male Sprague-Dawley rat at 2 mg/kg by LC-MS/MS analysis; type: ADME, organism-based; conditions: in vivo
[21] = AUC in male Sprague-Dawley rat at 2 mg/kg by LC-MS/MS analysis; type: ADME, organism-based; conditions: in vivo
[22] = tested on: Pseudomonas aeruginosa; assay: Antibacterial activity against Pseudomonas aeruginosa infected in BalbC mouse model of Septicaemia infection assessed as survival rate at 128 mg/kg administration starting at 0.5 to 2 hrs post infection and measured after 2 days relative to control; type: functional; conditions: 48 h, time 2 day
[23] = tested on: Pseudomonas aeruginosa; assay: Antibacterial activity against Pseudomonas aeruginosa infected in BalbC mouse model of Septicaemia infection assessed as survival rate at 128 mg/kg administration starting at 0.5 to 2 hrs post infection and measured after 3 days relative to control; type: functional; conditions: 72 h, time 3 day
[24] = tested on: Pseudomonas aeruginosa; assay: Antibacterial activity against Pseudomonas aeruginosa infected in BalbC mouse model of Septicaemia infection assessed as survival rate at 128 mg/kg administration starting at 0.5 to 2 hrs post infection and measured after 7 days relative to control; type: functional; conditions: 168 h, time 7 day

Cytochrome P450 3A4, sequence (P08684 whole entry): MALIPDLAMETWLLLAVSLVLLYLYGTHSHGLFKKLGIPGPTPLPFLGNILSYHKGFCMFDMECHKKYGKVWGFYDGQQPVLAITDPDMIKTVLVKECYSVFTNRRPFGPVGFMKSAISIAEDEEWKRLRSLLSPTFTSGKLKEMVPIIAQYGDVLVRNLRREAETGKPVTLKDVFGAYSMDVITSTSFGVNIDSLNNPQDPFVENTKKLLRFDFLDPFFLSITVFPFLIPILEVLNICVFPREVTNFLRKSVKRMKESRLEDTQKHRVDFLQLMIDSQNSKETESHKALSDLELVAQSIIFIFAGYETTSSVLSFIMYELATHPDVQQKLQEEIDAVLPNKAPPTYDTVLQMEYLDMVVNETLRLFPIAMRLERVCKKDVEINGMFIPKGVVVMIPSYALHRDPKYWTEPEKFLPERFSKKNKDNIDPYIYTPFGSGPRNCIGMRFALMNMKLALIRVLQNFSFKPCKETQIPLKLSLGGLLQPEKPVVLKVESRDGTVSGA
Cytochrome P450 2D6, sequence (P10635 whole entry): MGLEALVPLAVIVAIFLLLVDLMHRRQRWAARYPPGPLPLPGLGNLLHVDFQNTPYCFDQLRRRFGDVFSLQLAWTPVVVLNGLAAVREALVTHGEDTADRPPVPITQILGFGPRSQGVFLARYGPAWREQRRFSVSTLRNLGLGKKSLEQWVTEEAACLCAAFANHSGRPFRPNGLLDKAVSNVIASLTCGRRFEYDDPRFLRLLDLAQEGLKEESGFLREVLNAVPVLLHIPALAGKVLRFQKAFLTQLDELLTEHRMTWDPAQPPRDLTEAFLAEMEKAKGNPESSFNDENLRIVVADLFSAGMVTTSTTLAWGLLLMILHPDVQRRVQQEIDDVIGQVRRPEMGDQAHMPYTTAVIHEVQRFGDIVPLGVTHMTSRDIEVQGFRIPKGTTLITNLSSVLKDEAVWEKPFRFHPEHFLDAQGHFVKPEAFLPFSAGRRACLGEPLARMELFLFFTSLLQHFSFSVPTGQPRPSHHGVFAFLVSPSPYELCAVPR
Cytochrome P450 2C9, sequence (P11712 whole entry): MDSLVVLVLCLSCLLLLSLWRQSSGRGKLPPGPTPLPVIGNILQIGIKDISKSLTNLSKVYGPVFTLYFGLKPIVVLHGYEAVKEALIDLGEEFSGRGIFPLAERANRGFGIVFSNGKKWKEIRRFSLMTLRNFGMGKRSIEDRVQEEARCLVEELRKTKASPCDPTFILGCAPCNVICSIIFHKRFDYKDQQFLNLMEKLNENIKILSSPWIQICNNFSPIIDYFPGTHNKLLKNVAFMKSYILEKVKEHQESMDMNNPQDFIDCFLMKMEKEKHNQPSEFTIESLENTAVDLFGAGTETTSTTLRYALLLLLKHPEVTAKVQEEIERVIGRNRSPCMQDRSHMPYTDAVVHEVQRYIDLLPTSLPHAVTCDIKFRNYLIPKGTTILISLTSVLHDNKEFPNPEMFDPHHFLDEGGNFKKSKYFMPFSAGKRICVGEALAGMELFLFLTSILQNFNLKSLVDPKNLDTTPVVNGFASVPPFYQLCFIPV
Cytochrome P450 2C19, sequence (P33261 whole entry): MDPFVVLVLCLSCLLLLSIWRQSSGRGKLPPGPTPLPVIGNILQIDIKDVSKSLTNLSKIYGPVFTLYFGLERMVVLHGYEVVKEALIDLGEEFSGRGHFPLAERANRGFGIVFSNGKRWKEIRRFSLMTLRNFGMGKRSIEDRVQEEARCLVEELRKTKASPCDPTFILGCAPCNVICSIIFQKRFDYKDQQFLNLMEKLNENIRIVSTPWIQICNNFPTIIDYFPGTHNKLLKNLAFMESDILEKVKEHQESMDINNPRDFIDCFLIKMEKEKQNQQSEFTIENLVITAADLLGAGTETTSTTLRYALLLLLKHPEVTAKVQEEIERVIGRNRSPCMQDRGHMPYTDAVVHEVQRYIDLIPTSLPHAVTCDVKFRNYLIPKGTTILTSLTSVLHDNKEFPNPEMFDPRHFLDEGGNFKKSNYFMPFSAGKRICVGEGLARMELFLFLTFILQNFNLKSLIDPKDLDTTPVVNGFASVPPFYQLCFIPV

Compound	Stability [3]	Stability [4]	Stability [5]	Stability [6]	Stability [7]	Stability [8]	Stability [9]	Stability [10]	Stability [11]	inhibition (INH) [12]	inhibition (INH) [13]	inhibition (INH) [14]	inhibition (INH) [15]	inhibition (INH) [16]	inhibition (INH) [17]	inhibition (INH) [18]	Activity [19]	AUC [21]	other results
Cc1sc(N)nc1/C(=N/O[C@@H](COc1ccc(C(=N)N[C@@H]2CCNC2)cc1)C(=O)O)C(=O)N[C@@H]1C(=O)N(OS(=O)(=O)O)C1(C)C	Stable	Stable	Stable	Stable	Stable	Stable	Stable	Stable	Stable	Not Active	Not Active	Not Active	Not Active	Not Active	Not Active	Not Active	60%	2790 ng·h/mL	fraction unbound at 6 h, 1 µM ([1]; read-out: PPB (converted)): 0.383; Stability [2]: Stable; half-life [20]: 24 min
C[C@H]1[C@H](NC(=O)/C(=N\OC(C)(C)C(=O)O)c2csc(N)n2)C(=O)N1S(=O)(=O)O [AZTREONAM]	Stable	Stable	Stable	Stable	Stable	Stable	Stable	Stable	Stable	Not Active	Not Active	Not Active	Not Active	Not Active	Not Active	Not Active	60%	2410 ng·h/mL	Stability ([1]; 6 h, 1 µM): Stable; survival at 128 mg/kg [22]: 90%; survival at 128 mg/kg [23]: 90%; survival at 128 mg/kg [24]: 90%
